{"source": "patent US20120122870A1", "about": "“Treatment Of Ischemia-Reperfusion Injury” (MUSC FOUNDATION FOR RESEARCH DEVELOPMENT, priority 2009, published 2012)", "key": {"[1]": {"system": "SK expression in the liver", "assay": "SK immunohistochemistry in liver after hepatic warm IR", "type": "in vivo, mice", "conditions": "50 mg/kg gavage 1 h prior to surgery; 1 h-ischemia plus 6 h-reperfusion", "description": "Warm IR upregulates SK in the liver. IR injury to the liver occurs in LT. Since SK is associated with inflammatory processes, we investigated whether IR affects SK expression in the liver. Male C57BL/6 mice (8-9 weeks) were gavaged with ABC294640 (ABC, 50 mg/kg) or an equal volume of vehicle (0.375% Tween-80 in phosphate buffer) 1 h prior to surgery. Under ether anesthesia, hepatic ischemia was induced by clamping the hepatic artery and portal vein to the upper three lobes of the liver (i.e., about 70% of total liver). One hour later, the ischemic liver was reperfused by opening the vascular clamp. Livers were collected 6 h later under pentobarbital anesthesia (80 mg/kg, i.p.) and SK was detected immunohistochemically. […] SK expression increased markedly after hepatic IR (FIG. 9 middle). Upregulation of SK occurred most overtly in hepatocytes in the midzonal regions of the liver lobule. […] Immunohistochemistry: Sections were deparaffinized in xylene, rehydrated in a series of graded alcohol concentrations and placed in phosphate buffered saline with 0.1% Tween-20. […] Appropriate peroxidase-conjugated secondary antibodies (DAKO Corp.) were then applied, followed by 3,3'-diaminobenzidine chromagen as the peroxidase substrate. A light counterstain of Meyer's hematoxylin was applied."}, "hepatic warm IR in mice": {"system": "hepatic warm IR in mice", "assay": "Survival after hepatic warm IR with removal of non-ischemic lobes", "type": "in vivo", "conditions": "1 h-ischemia, non-ischemic lobes removed, observed 7 days", "text": "To evaluate the effects of ABC294640 on survival of mice after IR, the non-ischemic liver lobes were removed after the vascular clamp was opened and mice were observed 7 days for survival. This procedure mimics total LT."}, "[2]": {"system": "lean liver transplantation in rats", "assay": "Lean liver transplantation, serum ALT", "type": "in vivo", "conditions": "60 μM in UW and Ringer's solutions plus 50 mg/kg i.p. to recipients; 6 h after LT; 8 h cold storage", "description": "ABC294640 decreases graft injury after lean LT. To investigate whether ABC294640 protects liver grafts after LT, a pilot study was conducted. Lean livers were explanted and stored in UW solution for 8 h. ABC294640 was added to the UW solution and the lactated Ringer's post-storage solution at a concentration of 60 μM and injected into the recipients (50 mg/kg, i.p.) immediately after transplantation. […] Liver transplantation: Inbred male Lewis rats (200-250 g) were used to prevent immunological interference. Under ether anesthesia, heparin (200 IU) in 0.5 mL of lactated Ringer's solution was injected into the subhepatic vena cava. A 4-mm long stent prepared from polyethylene tubing (PE50) was inserted into the common bile duct and secured with a 6-0 suture. Livers were then flushed with 5 ml of ice-cold UW cold storage solution. Venous cuffs prepared from 14-gauge i.v. catheters were placed in the subhepatic vena cava and the portal vein. Liver explants were stored in UW solution (0-1° C.) for 4-24 h, rinsed with lactated Ringer's solution and then implanted (n=10 in each group). […] Clinical chemistry: Blood samples were collected from the vena cava at various times, and ALT and bilirubin were measured enzymatically using analytic kits from Pointe Scientific."}, "[3]": {"system": "PMN infiltration in liver", "assay": "PMN infiltration (MPO immunohistochemistry) after hepatic warm IR", "type": "in vivo, mice", "description": "ABC294640 prevents hepatic warm ischemia-reperfusion (IR)-induced polymorphonuclear leukocyte (PMN) infiltration in mice. Hepatic warm ischemia was induced by clamping the mouse hepatic artery and portal vein to the upper three lobes of the liver as described in the original application. One hour later, the ischemic liver was reperfused by opening the vascular clamp. Livers were collected 6 h later and myeloperoxidase (MPO), a marker of PMNs, was detected immunohistochemically. MPO-positive cells were counted in 10 fields selected randomly per slide in a blinded manner to assess PMN infiltration. MPO-positive cells were ˜1/high power field (hpf) in livers from sham-operated mice (FIG. 16). Six hours after reperfusion, MPO-positive cells increased almost 10-fold, indicating pronounced inflammation. […] ABC294640 (50 mg/kg, i.g. once) decreased PMN infiltration by ˜70% at 6 h after reperfusion (FIG. 16). Livers from mice exposed to one dose of ABC294640 had lower PMN infiltration compared to the untreated mice even at 2 weeks after reperfusion. […] Immunohistochemistry: Sections were deparaffinized in xylene, rehydrated in a series of graded alcohol concentrations and placed in phosphate buffered saline with 0.1% Tween-20. […] Appropriate peroxidase-conjugated secondary antibodies (DAKO Corp.) were then applied, followed by 3,3′-diaminobenzidine chromagen as the peroxidase substrate. A light counterstain of Meyer's hematoxylin was applied."}, "[4]": {"system": "severe kidney ischemia-reperfusion in mice", "assay": "Ischemia-reperfusion of the kidney (severe model), survival, BUN and creatinine", "type": "in vivo", "description": "ABC294640 promotes survival in a severe model of kidney damage. To evaluate the protective effects of ABC294640 in a more severe IR model, mice were treated with ABC294640 (50 mg/kg in 0.1 mL by oral gavage) or vehicle (0.1 ml in 0.375% Tween-80 in PBS), and then the right kidney was ligated and removed and the left kidney pedicle was clamped for 45 min before reperfusion. Animals were assessed daily for postoperative health, including scoring for weight loss, activity and appearance. Following severe IR, vehicle-treated mice consistently died or were sacrificed because of severe ill health on post-surgery Day 2 (FIG. 3). In marked contrast, mice that received 50 mg/kg ABC294640 preoperatively all survived the IR insult.\nABC294640 protects against renal failure in a severe model of kidney damage. Blood was drawn from the severe IR mice at sacrifice, and levels of blood urea nitrogen (BUN) and creatinine were determined as indicators of renal function (FIG. 4). As expected, serum creatinine and BUN levels were highly elevated in the vehicle-treated IR animals (clear bars) compared with sham animals (hatched bars), indicative of post-surgical renal failure.\nIschemia-reperfusion of the kidney (severe model): The irreversible model was performed in a similar manner to the reversible model described above with the exception that the right kidney pedicle was tied off and the kidney removed and the left kidney was clamped for 45 minutes."}, "[5]": {"conditions": "severe kidney IR, 48 hr (2 days) post-surgery"}, "[6]": {"conditions": "severe kidney IR, post-surgery Day 10"}}, "note": "“Also recorded” adds a separate entry of the source.", "data": [{"smiles": "O=C(NCc1ccncc1)C12CC3CC(C1)CC(c1ccc(Cl)cc1)(C3)C2", "note": "[ABC294640, 3-(4-chlorophenyl)-N-(pyridin-4-ylmethyl)adamantane-1-carboxamide]", "values": [{"measurement": "upregulation of SK after hepatic IR", "setting": "[1]", "value": "prevents upregulation; also recorded: attenuated upregulation"}, {"measurement": "survival / acute liver failure after IR (in words)", "setting": "hepatic warm IR in mice", "value": "significantly different; also recorded: completely prevented acute liver failure"}, {"measurement": "survival after IR", "setting": "hepatic warm IR in mice; pretreated mice", "value": 100, "unit": "%"}, {"measurement": "serum ALT after lean LT vs vehicle", "setting": "[2]", "value": "markedly attenuated; also recorded: decreases ALT release"}, {"measurement": "decrease of PMN infiltration (MPO-positive cells)", "setting": "[3]; 50 mg/kg, i.g. once, 6 h after reperfusion", "value": "~70", "unit": "%"}, {"measurement": "PMN infiltration after hepatic IR (in words)", "setting": "[3]; livers harvested 6 h or 2 weeks after IR", "value": "inhibits PMN infiltration"}, {"measurement": "PMN infiltration compared to untreated mice", "setting": "[3]; one dose, 2 weeks after reperfusion", "value": "lower"}, {"measurement": "survival after severe kidney IR", "setting": "[4]; 50 mg/kg oral gavage preoperatively, right kidney removed, left pedicle clamped 45 min", "value": "all survived"}, {"measurement": "survival time after severe kidney IR", "setting": "[4]; 50 mg/kg oral gavage, right kidney removed, left kidney clamped 45 minutes", "value": "at least 9 days"}, {"measurement": "postoperative health at sacrifice", "setting": "[4]; severe kidney IR, 50 mg/kg, post-surgery Day 9, 50 mg/kg", "value": "in good health; also recorded: appeared robust and were gaining weight"}, {"measurement": "BUN vs vehicle", "setting": "[4]; [5]", "value": "significantly reduced"}, {"measurement": "serum creatinine vs vehicle", "setting": "[4]; [5]", "value": "significantly reduced"}, {"measurement": "BUN", "setting": "[4]; [6]", "value": "returned to normal; also recorded: returning to normal"}, {"measurement": "serum creatinine", "setting": "[4]; [6]", "value": "returned to normal; also recorded: returning to normal"}]}]}
